This note sets out measurements from ChEMBL document CHEMBL1143640, “Modulators of the human CCR5 receptor. Part 2: SAR of substituted 1-(3,3-diphenylpropyl)-piperidinyl phenylacetamides” (Bioorg Med Chem Lett, 2005).

A word on the IC50: it is the concentration that gives 50% inhibition. Usually bioavailability stands for dose-corrected exposure relative to a reference, in per cent. A word on the clearance: it is a measure of how efficiently the substance is removed, as volume per time. In general, AUC refers to the area under the concentration-time curve, a measure of exposure. Read a low AUC as less exposure.

Series [1] deals with T1, C-C chemokine receptor type 5 (Homo sapiens, UniProt P51681). The series is described as follows: Displacement of [125I]-MIP-1 alpha from human C-C chemokine receptor type 5 expressed in CHO cells. It counts as cell-based. In general terms: Loss of bound radioactivity is the signal in a displacement assay; it reports binding, not function.
Series [2] in a line: In vitro intrinsic clearance against rat hepatocytes.
A short description of series [3]: Bioavailability in rat after 4-10 mg/kg oral dosage; n=3. It counts as ADME, organism-based. The settings on record: in vivo.
Series [4] can be described thus: Clearance in rat after 1 mg/kg i.v. dosage; n=3. The settings on record: in vivo, iv.
In series [5] the target is T1, C-C chemokine receptor type 5. Briefly: Inhibition of MIP-1beta stimulated calcium transients in CCR5-expressing CHO cells. It counts as functional, cell-based.
Series [6] can be described thus: Ability to inhibit the chemotaxis of human AlloT cells in response to MIP-1beta. It counts as functional, cell-based.
A short description of series [7]: Area under the plasma concentration curve was determined at 0-6 hours in rat after ~2 mg/kg oral dosage; n=2.

T1 sequence (P51681 whole entry): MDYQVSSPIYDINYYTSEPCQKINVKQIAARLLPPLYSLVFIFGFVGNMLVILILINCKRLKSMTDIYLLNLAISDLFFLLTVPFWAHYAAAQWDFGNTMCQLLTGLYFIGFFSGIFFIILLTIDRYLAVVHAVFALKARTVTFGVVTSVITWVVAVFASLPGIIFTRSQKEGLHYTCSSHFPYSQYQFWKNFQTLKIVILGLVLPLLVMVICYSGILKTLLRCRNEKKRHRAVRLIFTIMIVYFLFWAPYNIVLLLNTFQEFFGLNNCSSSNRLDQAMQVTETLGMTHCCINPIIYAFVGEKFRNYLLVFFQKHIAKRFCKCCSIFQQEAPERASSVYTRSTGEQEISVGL

On to `CS(=O)(=O)c1ccc(CC(=O)N(C2CC2)C2CCN(CCC(c3ccccc3)c3ccccc3)CC2)cc1`, for which, in series [1], the IC50 is 32 nM.

Molecule `CCN(C(=O)Cc1ccc(S(C)(=O)=O)cc1)C1CCN(CCC(c2ccccc2)c2ccc(NS(=O)(=O)Cc3ccccc3)cc2)CC1` (stereo not given) gave a half-maximal inhibitory concentration (IC50) in series [1] of 11 nM.

In series [1], `CCN(C(=O)Cc1ccc(S(C)(=O)=O)cc1)C1CCN(CCC(c2ccccc2)c2ccc(C(N)=O)cc2)CC1` (stereo not given) gave a 50% inhibitory concentration (IC50) of 260 nM.

In series [2], `CCN(C(=O)Cc1ccc(S(C)(=O)=O)cc1)C1CCN(CCC(c2ccccc2)c2ccc(Cl)cc2)CC1` (stereo not given) displayed a Clint of 34 uL/min/10e6 cells. This molecule also gave an IC50 in series [1] of 8.5 nM. The bioavailability in series [3] came to 3%. This molecule came in with a clearance in series [4] of 46 mL/min/kg.

With `CCN(C(=O)Cc1ccc(S(C)(=O)=O)cc1)C1CCN(CCC(c2ccccc2)c2ccc(NC(=O)OC(C)(C)C)cc2)CC1` (stereo not given), in series [1], the IC50 was 200 nM.

`CCN(C(=O)Cc1ccc(S(C)(=O)=O)cc1)C1CCN(CCC(c2ccccc2)c2ccccc2)CC1` returned a half-inhibitory concentration (IC50) in series [1] of 18 nM.

For the molecule `CCN(C(=O)Cc1ccc(S(C)(=O)=O)cc1)C1CCN(CCC(c2ccccc2)c2ccc(SC)cc2)CC1` (stereo not given), the concentration for half-maximal inhibition (IC50) in series [1] turned out to be 12 nM.

In turn, `CCN(C(=O)Cc1ccc(S(C)(=O)=O)cc1)C1CCN(CCC(c2ccc(NC(=O)OC(C)(C)C)cc2)c2cccc(F)c2)CC1` (stereo not given) gave an IC50 in series [1] of 89 nM.

`CCN(C(=O)Cc1ccc(S(C)(=O)=O)cc1)C1CCN(CCC(c2ccccc2)c2ccc(Cl)c(Cl)c2)CC1` (stereo not given) yielded an IC50 in series [1] of 78 nM.

In turn, `CCN(C(=O)Cc1ccc(S(C)(=O)=O)cc1)C1CCN(CCC(c2ccccc2)c2cccc(Cl)c2)CC1` (stereo not given) had a 50% inhibitory concentration (IC50) in series [1] of 58 nM.

The molecule `CCN(C(=O)Cc1ccc(S(C)(=O)=O)cc1)C1CCN(CCC(c2ccccc2)c2ccc(C#N)cc2)CC1` (stereo not given) registered a half-maximal inhibitory concentration (IC50) in series [1] of less than 1 nM.

In series [1], `CCN(C(=O)Cc1ccc(S(C)(=O)=O)cc1)C1CCN(CCC(c2ccccc2)c2ccc(NC(=O)c3ccccc3)cc2)CC1` (stereo not given) displayed an IC50 of 130 nM.

For `CCN(C(=O)Cc1ccc(S(C)(=O)=O)cc1)C1CCN(CCC(c2ccccc2)c2ccc(NC(C)=O)cc2)CC1` (stereo not given), the half-maximal inhibitory concentration (IC50) in series [1] turned out to be 26 nM.

Turning to `CCN(C(=O)Cc1ccc(S(C)(=O)=O)cc1)C1CCN(CCC(c2ccccc2)c2ccc(NS(C)(=O)=O)cc2)CC1` (stereo not given), the 50% inhibitory concentration (IC50) in series [1] was determined as 18 nM; in series [5], 24 nM; in series [6] it was 31 nM.

`CCN(C(=O)Cc1ccc(S(C)(=O)=O)cc1)C1CCN(CCC(c2ccccc2)c2ccc(OC)cc2)CC1` (stereo not given) registered a Clint in series [2] of 41 uL/min/10e6 cells. The molecule also had a half-maximal inhibitory concentration (IC50) in series [1] of 6.3 nM.

Regarding `CCN(C(=O)Cc1ccc(S(C)(=O)=O)cc1)C1CCN(CCC(c2ccccc2)c2ccc(N)cc2)CC1` (stereo not given), the concentration for half-maximal inhibition (IC50) in series [1] came out at 200 nM.

For the molecule `CCN(C(=O)Cc1ccc(S(C)(=O)=O)cc1)C1CCN(CCC(c2ccccc2)c2ccc(NS(=O)(=O)c3ccccc3)cc2)CC1` (stereo not given), in series [1], the IC50 was determined as 740 nM.

For `C=CCN(C(=O)Cc1ccc(S(C)(=O)=O)cc1)C1CCN(CCC(c2ccccc2)c2ccccc2)CC1`, the Clint in series [2] was 54 uL/min/10e6 cells. The IC50 in series [1] was 13 nM. This molecule also yielded a bioavailability in series [3] of 11%. The same molecule displayed a clearance in series [4] of 54 mL/min/kg. This molecule also showed an AUC at 6 h in series [7] of 0.132 µM·h.

On to `CCN(C(=O)Cc1ccc(S(C)(=O)=O)cc1)C1CCN(CCC(c2ccc(Cl)cc2)c2ccc(Cl)cc2)CC1`, for which the IC50 in series [1] was 760 nM.

Molecule `CCN(C(=O)Cc1ccc(S(C)(=O)=O)cc1)C1CCN(CCC(c2ccccc2)c2ccc(NC(=O)C(C)(C)C)cc2)CC1` (stereo not given) showed a half-maximal inhibitory concentration (IC50) in series [1] of 22 nM.

As for `CCN(C(=O)Cc1ccc(S(C)(=O)=O)cc1)C1CCN(CCC(c2ccccc2)c2ccc(-c3ccccc3)cc2)CC1` (stereo not given), the 50% inhibitory concentration (IC50) in series [1] is 85 nM.

As for `CCN(C(=O)Cc1ccc(S(C)(=O)=O)cc1)C1CCN(CCC(c2ccccc2)c2ccc(C)cc2)CC1` (stereo not given), the IC50 in series [1] was 28 nM.

In turn, `CCN(C(=O)Cc1ccc(S(C)(=O)=O)cc1)C1CCN(CCC(c2ccc(Cl)cc2)c2cccc(F)c2)CC1` (stereo not given) registered a concentration for half-maximal inhibition (IC50) in series [1] of 19 nM.

`CCN(C(=O)Cc1ccc(S(C)(=O)=O)cc1)C1CCN(CCC(c2ccc(NS(C)(=O)=O)cc2)c2cccc(F)c2)CC1` (stereo not given) gave a Clint in series [2] of 15 uL/min/10e6 cells. The AUC at 6 h in series [7] is 0.002 µM·h.

For the molecule `CCN(C(=O)Cc1ccc(S(C)(=O)=O)cc1)C1CCN(CCC(c2ccccc2)c2ccc(F)cc2)CC1` (stereo not given), the IC50 in series [1] came to 310 nM.

Turning to `CCN(C(=O)Cc1ccc(S(C)(=O)=O)cc1)C1CCN(CCC(c2ccccc2)c2ccc(C(=O)OC)cc2)CC1` (stereo not given), the Clint in series [2] is recorded as greater than 150 uL/min/10e6 cells. This molecule also yielded an IC50 in series [1] of 7.1 nM.

In turn, `CCN(C(=O)Cc1ccc(S(C)(=O)=O)cc1)C1CCN(CCC(c2ccc(NC(C)=O)cc2)c2cccc(F)c2)CC1` (stereo not given) registered a Clint in series [2] of 17 uL/min/10e6 cells. In series [1], this molecule came in with an IC50 of 7.9 nM. The same molecule returned an AUC at 6 h in series [7] of 0.008 µM·h.

`CCN(C(=O)Cc1ccc(S(C)(=O)=O)cc1)C1CCN(CCC(c2ccccc2)c2ccc(NC(=O)Cc3ccccc3)cc2)CC1` (stereo not given): the 50% inhibitory concentration (IC50) in series [1] came out at 5.9 nM. In series [7], this molecule yielded an AUC at 6 h of 0.012 µM·h.

In series [2], `CCN(C(=O)Cc1ccc(S(C)(=O)=O)cc1)C1CCN(CCC(c2ccc(F)cc2)c2ccc(F)cc2)CC1` had a Clint of 4 uL/min/10e6 cells. In series [1], the concentration for half-maximal inhibition (IC50) worked out at 780 nM. In series [3], the bioavailability stood at 56%. This molecule also yielded a clearance in series [4] of 10 mL/min/kg. For the same molecule, the area under the curve (AUC) at 6 h in series [7] was determined as 1.87 µM·h.

In turn, `CCN(C(=O)Cc1ccc(S(C)(=O)=O)cc1)C1CCN(CCC(c2ccccc2)c2ccc(C(F)(F)F)cc2)CC1` (stereo not given) registered a Clint in series [2] of 37 uL/min/10e6 cells. In series [1], this molecule displayed a concentration for half-maximal inhibition (IC50) of 2.3 nM.
